Test results published in patent US20260191849A1, “PHARMACEUTICAL COMPOSITION FOR TREATMENT OF CANCER” (WIGEN BIOMEDICINE TECHNOLOGY (SHANGHAI) CO., LTD., priority 2022, published 2026).

Columns and labels:
[1] = tested on: HT29 subcutaneous xenograft tumors; test: In vivo pharmacodynamic study of combination therapy, HT29 subcutaneous xenograft tumor model of mice (Biological Example 14); set-up: species or system BALB/c nude mice
Description: BALB/c nude mice were each inoculated subcutaneously with 5×10^6 HT29 cells on the left dorsal side. After the tumors grew to 100-150 mm^3, the mice were randomly divided into the following groups for intragastric administration once daily for 14 consecutive days: group 1: vehicle control group; group 2: AMG650 (50 mpk, PO, QD); group 3: compound 714 (50 mpk, PO, QD); group 4: AMG650 (50 mpk, PO, QD)+Onvasertib (20 mpk, PO, QD); group 5: compound 714 (50 mpk, PO, QD)+Onvasertib (20 mpk, PO, QD); and group 6: Onvasertib (20 mpk, PO, QD). The administration to all the groups was stopped on day 15, and the tumor growth continued to be observed until day 21. The tumor volume was measured twice weekly and at the end of administration. […]

[2] = tested on: HT29 subcutaneous xenograft tumors; test: In vivo pharmacodynamic study, HT29 subcutaneous xenograft tumor model of mice (Biological Example 3); set-up: species or system BALB/c nude mice; settings: for Tumor volume on day 1 of administration / TGI / Tumor volume on day 28 of administration: 80 mg/kg intragastric once daily; for Tumor volume on day 1 of administration: day 1 (baseline); for TGI / Tumor volume on day 28 of administration: day 28; for inhibitory effects on the HT29 subcutaneous xenograft tumor in mice compared with AMG650: 80 mg/kg, in words
Protocol: BALB/c nude mice were each inoculated subcutaneously with 5×10^6 HT29 cells on the left dorsal side. After the tumors grew to 100-150 mm^3, the mice were randomly divided into the following groups for intragastric administration once daily: group 1: vehicle control group; group 2: compound 661 (80 mg/kg); group 3: compound 669 (80 mg/kg); group 4: compound 677 (80 mg/kg); group 5: compound 714 (80 mg/kg); group 6: compound 727 (80 mg/kg); group 7: compound 740 (80 mg/kg); and group 8: AMG65 (80 mg/kg). The tumor volume was measured twice weekly and at the end of administration. […].

[3] = tested on: Histone H3 Ser10 site in HT29 cells; test: Phosphorylation assay of histone H3 Ser10 site in HT29 cells, immunofluorescence (Biological Example 4); assay type: cell-based; settings: Homo sapiens, HT-29, 6 h, FITC/DAPI
Protocol: HT29 cells were seeded in a 96-well plate (Fisher 160376) at 8000 cells/well. The next day, the serially diluted compounds were added. Six hours after the addition of the compounds, the cells were washed once with 1×PBS, immobilized with 4% PFA for 15 min, further washed three times with 1×PBS, and permeabilized with 0.02% Triton-X100 for 10 min. Then, blocking was performed for 15-30 min using a blocking buffer. After a primary antibody (Phospho-Histone H3 (Ser10)) at a 1:3000 dilution was added, the well plate was left to stand at 4° C. overnight. The next day, the cells were washed three times with 1×PBS, and then a secondary antibody (Fluorescein (FITC)-conjugated Affinipure Goat Anti-Rabbit IgG (H+L)) at a 1:1000 dilution was added. The cells were incubated in the dark for 1-2 h and then washed three times with 1×PBS. Subsequently, the cell nuclei were stained using DAPI. The ratio of phosphorylation (FITC/DAPI) at H3 Ser10 site in HT29 cells was quantified. The effects of the compounds on Phospho-Histone H3 were evaluated, and EC50 values of the compounds were calculated.

[4] = PO QD 14 days, AMG650/714 50 mpk, Onvasertib 20 mpk, day 15
[5] = PO QD 14 days, AMG650/714 50 mpk, Onvasertib 20 mpk, day 21, after stop of administration

SMILES	Tumor volume on day 1 of administration ([1]; PO QD 14 days, AMG650/714 50 mpk, Onvasertib 20 mpk, day 1 (baseline)) [mm^3]	TGI on day 15 [1, 4] [%]	Tumor volume on day 15 of administration [1, 4] [mm^3]	TGI on day 21 [1, 5] [%]	Tumor volume on day 21 of administration [1, 5] [mm^3]	tumor inhibitory effect, combined use with the PLK1 inhibitor Onvasertib compared with monotherapy ([1]; combined with Onvasertib, in words)	therapeutic efficacy of monotherapy in HT29-bearing mice ([1]; monotherapy, in words)	Tumor volume on day 1 of administration [2] [mm^3]	TGI [2] [%]	Tumor volume on day 28 of administration [2] [mm^3]	inhibitory effects on the HT29 subcutaneous xenograft tumor in mice compared with AMG650 [2]	EC50 [3] [nM]
COc1ccc(NC(=O)c2ccc(NS(=O)(=O)CCOC(=O)[C@@H](N)C(C)C)cc2N2CCC3(CC2)CC3)nc1N1CCC(F)(F)CC1 [Compound 714]	134	121	17	110	49	stronger tumor inhibitory effect	able to inhibit tumor growth	121	80	424	stronger inhibitory effects	39.2
COc1ccc(C(=O)Nc2ccc(NS(=O)(=O)CCOC(=O)[C@@H](N)C(C)C)cc2N2CCC3(CC2)CC3)nc1N1CCC(F)(F)CC1 [Compound 727]	–	–	–	–	–	–	–	121	73	519	stronger inhibitory effects	–
COc1ccc(NC(=O)c2ccc(S(=O)(=O)NCCOC(=O)[C@@H](N)C(C)C)cc2N2CCC3(CC2)CC3)nc1N1CCC(F)(F)CC1 [Compound 740]	–	–	–	–	–	–	–	121	67	605	stronger inhibitory effects	–
